The assay has as its target T1, human OX2R (Homo sapiens, UniProt O43614).
T1 construct: expressed in transfected cells; host or cells: CHO (Chinese hamster ovary) cells grown under G418 selection
T1 sequence (O43614 1-444): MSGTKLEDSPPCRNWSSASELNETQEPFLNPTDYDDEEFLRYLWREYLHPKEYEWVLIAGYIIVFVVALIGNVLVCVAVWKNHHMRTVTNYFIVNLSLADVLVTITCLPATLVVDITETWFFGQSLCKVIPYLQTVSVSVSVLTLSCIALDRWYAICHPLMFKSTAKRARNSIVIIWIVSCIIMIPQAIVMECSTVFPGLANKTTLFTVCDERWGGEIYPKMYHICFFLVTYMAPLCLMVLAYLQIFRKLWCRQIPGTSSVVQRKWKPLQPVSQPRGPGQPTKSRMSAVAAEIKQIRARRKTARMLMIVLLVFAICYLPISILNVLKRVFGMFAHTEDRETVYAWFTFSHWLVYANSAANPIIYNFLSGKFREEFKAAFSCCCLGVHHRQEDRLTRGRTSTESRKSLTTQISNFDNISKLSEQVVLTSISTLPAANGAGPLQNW
The experiment in a line: IPOne (IP-1 accumulation) assay in CHO cells expressing human OX2R. Type of assay: cell-based. Particulars: for EC50: CHO cells expressing human OX2R, IP-One assay, 2 h incubation, four parameter logistic fit, read-out: OX2R Potency, EC50; for % of maximum agonist effect (relative to Orexin A): percent effect vs mean max effect of a reference compound at 1 uM (100% activity vs Orexin A), human OX2R. An excerpt:
The utility of the compounds in accordance with the present invention as orexin receptor OX1R and/or OX2R agonists may be readily determined without undue experimentation by methodology well known in the art. Both the OX1R and/or OX2R G-coupled protein receptors (GPCRs) couple through the Gαq signaling pathway, which ultimately promotes calcium mobilization via inositol triphosphate (IP3) production. […] The utility of the compounds in accordance with the present invention as orexin receptor OX1R and/or OX2R agonists may be determined utilizing this assay.
In a typical experiment, the OX1 and OX2 receptor agonist activity is determined in accordance with the following general experimental method. Chinese hamster ovary (CHO) cells expressing human OX1R and/or the human OX2R were grown in Iscove's modified DMEM containing glutaMAX™, 1% G418, 100 U/mL penicillin, 100 μg/mL streptomycin and 10% heat-inactivated qualified fetal bovine serum (FBS). […] During this incubation, IP-one detection reagents were prepared (38:1:1 lysis buffer:D2:AB-cryptate reagents).
For each compound, data were fit to a four parameter logistic fit (ActivityBase software) and the EC50 was reported as the inflection point of the resulting curve. […] The intrinsic orexin receptor agonist activity of a compound which may be used in the present invention may be determined by these assays.

A word on the EC50: it is the concentration needed to bring the measured effect to its halfway point. On to `CCN(C(=O)NC(Cn1ccnn1)C(F)(F)F)[C@H](C)c1cccc(-c2cn3ccnc3c(OC)n2)c1` (stereo partly drawn) [Example 1-17, 1-ethyl-1-((R)-1-(3-(8-methoxyimidazo[1,2-a]pyrazin-6-yl)phenyl)ethyl)-3-(1,1,1-trifluoro-3-(1H-1,2,3-triazol-1-yl)propan-2-yl)urea], for which the EC50 was 10.5 nM and the “% of maximum agonist effect (relative to Orexin A)” value is 98.7%.

Turning to `CCN(C(=O)N[C@@H](C)C(F)(F)F)[C@@H](c1cc(-c2cn3ccnc3c(OC)n2)c(OC)cn1)C(F)(F)F` [Example 2-1, 1-ethyl-1-((S)-2,2,2-trifluoro-1-(5-methoxy-4-(8-methoxyimidazo[1,2-a]pyrazin-6-yl)pyridin-2-yl)ethyl)-3-((S)-1,1,1-trifluoropropan-2-yl)urea], the EC50 came out at 6.8 nM and the “% of maximum agonist effect (relative to Orexin A)” value stood at 100.1%.

With `CCN(C(=O)NC(CC(C)C(F)(F)F)C(F)(F)F)[C@H](C)c1cccc(-c2cn3ccnc3c(OC)n2)c1` (stereo partly drawn) [Example 2-2, 1-ethyl-3-(1,1,1,5,5,5-hexafluoro-4-methylpentan-2-yl)-1-((R)-1-(3-(8-methoxyimidazo[1,2-a]pyrazin-6-yl)phenyl)ethyl)urea], the EC50 was found to be 3.7 nM and the “% of maximum agonist effect (relative to Orexin A)” value is listed as 99.1%.

On to `CCC(CC(C)C(F)(F)F)NC(=O)N(CC)[C@H](C)c1cccc(-c2cn3ccnc3c(OC)n2)c1` (stereo partly drawn) [Example 2-3, 1-ethyl-1-((R)-1-(3-(8-methoxyimidazo[1,2-a]pyrazin-6-yl)phenyl)ethyl)-3-(6,6,6-trifluoro-5-methylhexan-3-yl)urea], for which the EC50 is 4.6 nM and the “% of maximum agonist effect (relative to Orexin A)” value was determined as 100.6%.

In the case of `CCN(C(=O)NC(C1CC(F)(F)CC(C)(C)O1)C(F)(F)F)[C@@H](c1cc(-c2cn3cc(C)nc3c(OC)n2)c(OC)cn1)C(F)(F)F` (stereo partly drawn) [Example 2-4, 3-(1-(4,4-difluoro-6,6-dimethyltetrahydro-2H-pyran-2-yl)-2,2,2-trifluoroethyl)-1-ethyl-1-((S)-2,2,2-trifluoro-1-(5-methoxy-4-(8-methoxy-2-methylimidazo[1,2-a]pyrazin-6-yl)pyridin-2-yl)ethyl)urea], the half-maximal effective concentration (EC50) amounted to 4.3 nM and the “% of maximum agonist effect (relative to Orexin A)” value is on record as 100.6%.

As to `CCN(C(=O)NC(C1CCC1)C(F)(F)F)[C@@H](c1cc(-c2cn3ccnc3c(OC)n2)c(OC)cn1)C(F)(F)F` (stereo partly drawn) [Example 2-5, 3-(1-cyclobutyl-2,2,2-trifluoroethyl)-1-ethyl-1-((S)-2,2,2-trifluoro-1-(5-methoxy-4-(8-methoxyimidazo[1,2-a]pyrazin-6-yl)pyridin-2-yl)ethyl)urea], the concentration giving a half-maximal response (EC50) came out at 10.7 nM and the “% of maximum agonist effect (relative to Orexin A)” value is given as 100.7%.

For the molecule `CCN(C(=O)NC(C1CC1)C(F)(F)F)C(c1cc(-c2cn3ccnc3c(OC)n2)c(OC)cn1)C(F)(F)F` (stereo not drawn) [Example 2-6, 3-(1-cyclopropyl-2,2,2-trifluoroethyl)-1-ethyl-1-(2,2,2-trifluoro-1-(5-methoxy-4-(8-methoxyimidazo[1,2-a]pyrazin-6-yl)pyridin-2-yl)ethyl)urea], the concentration for a half-maximal effect (EC50) was found to be 12.1 nM and the “% of maximum agonist effect (relative to Orexin A)” value turned out to be 101.5%.

`CCN(C(=O)NC(C(F)F)C1CC1)[C@@H](c1cc(-c2cn3ccnc3c(OC)n2)c(OC)cn1)C(F)(F)F` (stereo partly drawn) [Example 2-7, 3-(1-cyclopropyl-2,2-difluoroethyl)-1-ethyl-1-((S)-2,2,2-trifluoro-1-(5-methoxy-4-(8-methoxyimidazo[1,2-a]pyrazin-6-yl)pyridin-2-yl)ethyl)urea]: the concentration giving a half-maximal response (EC50) was 12.5 nM and the “% of maximum agonist effect (relative to Orexin A)” value came out at 100.1%.

For `CC[C@H](NC(=O)N(CC)C(c1cc(-c2cn3ccnc3c(OC)n2)c(OC)cn1)C(F)(F)F)C(F)(F)F` (stereo partly drawn) [Example 2-8, 1-ethyl-1-(2,2,2-trifluoro-1-(5-methoxy-4-(8-methoxyimidazo[1,2-a]pyrazin-6-yl)pyridin-2-yl)ethyl)-3-((S)-1,1,1-trifluorobutan-2-yl)urea], the EC50 came to 13.3 nM and the “% of maximum agonist effect (relative to Orexin A)” value is reported as 100.0%.

In the case of `CCN(C(=O)NC1CCC1C(F)(F)F)[C@@H](c1cc(-c2cn3ccnc3c(OC)n2)c(OC)cn1)C(F)(F)F` (stereo partly drawn) [Example 2-9, 1-ethyl-1-((S)-2,2,2-trifluoro-1-(5-methoxy-4-(8-methoxyimidazo[1,2-a]pyrazin-6-yl)pyridin-2-yl)ethyl)-3-(2-(trifluoromethyl)cyclobutyl)-urea], the EC50 stood at 20.3 nM and the “% of maximum agonist effect (relative to Orexin A)” value is given as 100.0%.

For `CCC(NC(=O)N(CC)[C@@H](c1cc(-c2cn3ccnc3c(OC)n2)c(OC)cn1)C(F)(F)F)C(F)F` (stereo partly drawn) [Example 2-10, 3-(1,1-difluorobutan-2-yl)-1-ethyl-1-((S)-2,2,2-trifluoro-1-(5-methoxy-4-(8-methoxyimidazo[1,2-a]pyrazin-6-yl)pyridin-2-yl)ethyl)urea], the half-maximal effective concentration (EC50) came to 22.5 nM and the “% of maximum agonist effect (relative to Orexin A)” value was 98.5%.

As to `CCN(C(=O)NCC(C)C(F)(F)F)[C@@H](c1cc(-c2cn3ccnc3c(OC)n2)c(OC)cn1)C(F)(F)F` (stereo partly drawn) [Example 2-11, 1-ethyl-1-((S)-2,2,2-trifluoro-1-(5-methoxy-4-(8-methoxyimidazo[1,2-a]pyrazin-6-yl)pyridin-2-yl)ethyl)-3-(3,3,3-trifluoro-2-methylpropyl)urea], the EC50 came out at 30.3 nM and the “% of maximum agonist effect (relative to Orexin A)” value is reported as 97.6%.

For `CCN(C(=O)N[C@@H](CCC(F)(F)F)C(F)(F)F)C(c1cc(-c2cn3ccnc3c(OC)n2)c2occc2n1)C(F)(F)F` (stereo partly drawn) [Example 2-13, 1-ethyl-3-((S)-1,1,1,5,5,5-hexafluoropentan-2-yl)-1-(2,2,2-trifluoro-1-(7-(8-methoxyimidazo[1,2-a]pyrazin-6-yl)furo[3,2-b]pyridin-5-yl)ethyl)urea], the EC50 came out at 2.1 nM and the “% of maximum agonist effect (relative to Orexin A)” value turned out to be 99.9%.

Consider `CCN(C(=O)N[C@@H](CCC(F)(F)F)C(F)(F)F)C(c1cc(-c2cn3ccnc3c(OC)n2)c2nccn2c1)C(F)(F)F` (stereo partly drawn) [Example 2-14, 1-ethyl-3-((S)-1,1,1,5,5,5-hexafluoropentan-2-yl)-1-(2,2,2-trifluoro-1-(8-(8-methoxyimidazo[1,2-a]pyrazin-6-yl)imidazo[1,2-a]pyridin-6-yl)ethyl)urea], for which the concentration giving a half-maximal response (EC50) worked out at 8.7 nM and the “% of maximum agonist effect (relative to Orexin A)” value was 100.1%.

`CCN(C(=O)N[C@@H](CCC(F)(F)F)C(F)(F)F)C(c1cnc(SC)c(-c2cc(OC)n3nccc3c2)c1)C(F)(F)F` (stereo partly drawn) [Example 2-15, 1-ethyl-3-((S)-1,1,1,5,5,5-hexafluoropentan-2-yl)-1-(2,2,2-trifluoro-1-(5-(7-methoxypyrazolo[1,5-a]pyridin-5-yl)-6-(methylthio)pyridin-3-yl)ethyl)urea]: the concentration giving a half-maximal response (EC50) was 24 nM and the “% of maximum agonist effect (relative to Orexin A)” value was 98.4%.

Consider `CCN(C(=O)N[C@@H](CCC(F)(F)F)C(F)(F)F)C(c1cc(-c2cn3cc(C)nc3c(OC)n2)c(OC)cn1)C1CC1` (stereo partly drawn) [Example 2-16, 1-(cyclopropyl(5-methoxy-4-(8-methoxy-2-methylimidazo[1,2-a]pyrazin-6-yl)pyridin-2-yl)methyl)-1-ethyl-3-((S)-1,1,1,5,5,5-hexafluoropentan-2-yl)urea], for which the concentration giving a half-maximal response (EC50) came out at 54.5 nM and the “% of maximum agonist effect (relative to Orexin A)” value amounted to 101.1%.

Take `CCN(C(=O)N[C@@H](CCC(F)(F)F)C(F)(F)F)C(c1cc(-c2cn3cc(C)nc3c(OC)n2)c(OC)cn1)C(F)F` (stereo partly drawn) [Example 2-17, 1-(2,2-difluoro-1-(5-methoxy-4-(8-methoxy-2-methylimidazo[1,2-a]pyrazin-6-yl)pyridin-2-yl)ethyl)-1-ethyl-3-((S)-1,1,1,5,5,5-hexafluoropentan-2-yl)urea]: the half-maximal effective concentration (EC50) worked out at 3.2 nM and the “% of maximum agonist effect (relative to Orexin A)” value was 101.7%.

Consider `CCN(C(=O)N[C@@H](COC1CC1)C(F)(F)F)[C@@H](c1cc(-c2cn3cc(C)nc3c(OC)n2)c(OC)cn1)C(F)(F)F` [Example 2-18, 3-((S)-3-cyclopropoxy-1,1,1-trifluoropropan-2-yl)-1-ethyl-1-((S)-2,2,2-trifluoro-1-(5-methoxy-4-(8-methoxy-2-methylimidazo[1,2-a]pyrazin-6-yl)pyridin-2-yl)ethyl)urea], for which the EC50 was 29.9 nM and the “% of maximum agonist effect (relative to Orexin A)” value was found to be 99.6%.
